# Assay results from PubChem BioAssay (NCI).
#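 Step 1: Grow cells in 96-well plates. Step 2: Expose to compound for 48 hours at 5 concentrations. Step 3: Interpolate endpoints linearly; if unreached, use highest concentration. GI50: concentration for 50% inhibition of growth. Definition used: TGI = concentration required for complete inhibition of growth.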
# Assays:
# Experiment in all cases: growth of human tumour cells (NCI), 48 h
# NCI/ADR-RES ovarian = test system: NCI/ADR-RES ovarian
# PC-3 prostate = test system: PC-3 prostate
# HOP-92 NSCLC = test system: HOP-92 NSCLC
# SK-OV-3 ovarian = test system: SK-OV-3 ovarian
# SF-539 CNS = test system: SF-539 CNS
# IGROV1 ovarian = test system: IGROV1 ovarian
# SK-MEL-5 melanoma = test system: SK-MEL-5 melanoma
# UACC-257 melanoma = test system: UACC-257 melanoma
# HOP-62 NSCLC = test system: HOP-62 NSCLC
# NCI-H460 lung = test system: NCI-H460 lung
# OVCAR-8 ovarian = test system: OVCAR-8 ovarian
# RPMI-8226 leukemia = test system: RPMI-8226 leukemia
# DMS 114 small cell lung = test system: DMS 114 small cell lung
# SN12C renal = test system: SN12C renal
# DU-145 prostate = test system: DU-145 prostate
# NCI-H522 lung = test system: NCI-H522 lung
# SNB-78 CNS = test system: SNB-78 CNS
# LOX IMVI melanoma = test system: LOX IMVI melanoma
# CAKI-1 renal = test system: CAKI-1 renal
# BT-549 breast = test system: BT-549 breast
# CCRF-CEM leukemia = test system: CCRF-CEM leukemia
# LXFL 529 NSCLC = test system: LXFL 529 NSCLC
# HOP-18 NSCLC = test system: HOP-18 NSCLC
# COLO 205 colon = test system: COLO 205 colon
# HT29 colon = test system: HT29 colon
# SF-295 CNS = test system: SF-295 CNS
# SW-620 colon = test system: SW-620 colon
# OVCAR-4 ovarian = test system: OVCAR-4 ovarian
# SK-MEL-28 melanoma = test system: SK-MEL-28 melanoma
# K-562 leukemia = test system: K-562 leukemia
# OVCAR-3 ovarian = test system: OVCAR-3 ovarian
# SR leukemia = test system: SR leukemia
# MOLT-4 leukemia = test system: MOLT-4 leukemia
# XF 498 CNS = test system: XF 498 CNS
# NCI-H226 lung = test system: NCI-H226 lung
# SNB-19 CNS = test system: SNB-19 CNS
# EKVX NSCLC = test system: EKVX NSCLC
# NCI-H23 lung = test system: NCI-H23 lung
# UO-31 renal = test system: UO-31 renal
# SK-MEL-2 melanoma = test system: SK-MEL-2 melanoma
# DLD-1 colon = test system: DLD-1 colon
# A549 NSCLC = test system: A549 NSCLC
# M19-MEL melanoma = test system: M19-MEL melanoma
# T-47D breast = test system: T-47D breast
# MDA-N = test system: MDA-N
# 786-0 renal = test system: 786-0 renal
# ACHN renal = test system: ACHN renal
# MCF7 breast = test system: MCF7 breast
# A498 renal = test system: A498 renal
# SNB-75 CNS = test system: SNB-75 CNS
# HS 578T breast = test system: HS 578T breast
# HL-60(TB) leukemia = test system: HL-60(TB) leukemia
# MDA-MB-231 breast = test system: MDA-MB-231 breast
# DMS 273 small cell lung = test system: DMS 273 small cell lung
# UACC-62 melanoma = test system: UACC-62 melanoma
# KM20L2 colon = test system: KM20L2 colon
# M14 melanoma = test system: M14 melanoma
# OVCAR-5 ovarian = test system: OVCAR-5 ovarian
# MDA-MB-435 = test system: MDA-MB-435
# MALME-3M melanoma = test system: MALME-3M melanoma
# U251 CNS = test system: U251 CNS
# TK-10 renal = test system: TK-10 renal
# HCC-2998 colon = test system: HCC-2998 colon
# SF-268 CNS = test system: SF-268 CNS
# RXF 393 renal = test system: RXF 393 renal
# HCT-116 colon = test system: HCT-116 colon
# RXF-631 renal = test system: RXF-631 renal
# HCT-15 colon = test system: HCT-15 colon
# KM12 colon = test system: KM12 colon
smiles,measurement,setting,value
CCC1(O)C(=O)OCc2c1cc1n(c2=O)Cc2cc3c(N)cccc3nc2-1 (stereo unspecified),TGI,NCI/ADR-RES ovarian,228 nM
same,TGI,PC-3 prostate,> 100000 nM
same,TGI,HOP-92 NSCLC,931 nM
same,TGI,SK-OV-3 ovarian,804 nM
same,TGI,SF-539 CNS,40.9 nM
same,TGI,IGROV1 ovarian,6230 nM
same,TGI,SK-MEL-5 melanoma,192 nM
same,TGI,UACC-257 melanoma,2620 nM
same,TGI,HOP-62 NSCLC,74.8 nM
same,TGI,NCI-H460 lung,1130 nM
same,TGI,OVCAR-8 ovarian,7210 nM
same,GI50,RPMI-8226 leukemia,27.9 nM
same,TGI,RPMI-8226 leukemia,879 nM
same,TGI,DMS 114 small cell lung,504 nM
same,TGI,SN12C renal,595 nM
same,TGI,DU-145 prostate,250 nM
same,GI50,NCI-H522 lung,23.1 nM
same,TGI,NCI-H522 lung,763 nM
same,TGI,SNB-78 CNS,> 51700 nM
same,TGI,LOX IMVI melanoma,230 nM
same,TGI,CAKI-1 renal,272 nM
same,TGI,BT-549 breast,4950 nM
same,TGI,CCRF-CEM leukemia,85.8 nM
same,GI50,LXFL 529 NSCLC,307 nM
same,TGI,LXFL 529 NSCLC,4710 nM
same,TGI,HOP-18 NSCLC,903 nM
same,TGI,COLO 205 colon,6410 nM
same,TGI,HT29 colon,22800 nM
same,TGI,SF-295 CNS,2010 nM
same,GI50,SW-620 colon,53.1 nM
same,TGI,SW-620 colon,11700 nM
same,TGI,OVCAR-4 ovarian,11600 nM
same,TGI,SK-MEL-28 melanoma,9190 nM
same,TGI,K-562 leukemia,> 48200 nM
same,TGI,OVCAR-3 ovarian,3020 nM
same,TGI,SR leukemia,< 11.4 nM
same,TGI,MOLT-4 leukemia,14 nM
same,TGI,XF 498 CNS,1850 nM
same,TGI,NCI-H226 lung,59.7 nM
same,TGI,SNB-19 CNS,26100 nM
same,TGI,EKVX NSCLC,30300 nM
same,TGI,NCI-H23 lung,80.6 nM
same,TGI,UO-31 renal,126 nM
same,TGI,SK-MEL-2 melanoma,3430 nM
same,TGI,DLD-1 colon,> 56400 nM
same,TGI,A549 NSCLC,10800 nM
same,TGI,M19-MEL melanoma,1290 nM
same,GI50,T-47D breast,19.1 nM
same,TGI,T-47D breast,654 nM
same,TGI,MDA-N,2570 nM
same,TGI,786-0 renal,89.3 nM
same,TGI,ACHN renal,157 nM
same,TGI,MCF7 breast,> 39700 nM
same,TGI,A498 renal,1390 nM
same,TGI,SNB-75 CNS,251 nM
same,TGI,HS 578T breast,22800 nM
same,TGI,HL-60(TB) leukemia,111 nM
same,TGI,MDA-MB-231 breast,14200 nM
same,TGI,DMS 273 small cell lung,209 nM
same,TGI,UACC-62 melanoma,34.5 nM
same,TGI,KM20L2 colon,20500 nM
same,GI50,M14 melanoma,< 10 nM
same,TGI,M14 melanoma,87.2 nM
same,GI50,OVCAR-5 ovarian,106 nM
same,TGI,OVCAR-5 ovarian,2670 nM
same,TGI,MDA-MB-435,2880 nM
same,TGI,MALME-3M melanoma,5670 nM
same,TGI,U251 CNS,1210 nM
same,TGI,TK-10 renal,35800 nM
same,TGI,HCC-2998 colon,2580 nM
same,TGI,SF-268 CNS,579 nM
same,TGI,RXF 393 renal,348 nM
same,TGI,HCT-116 colon,735 nM
same,TGI,RXF-631 renal,1620 nM
same,TGI,HCT-15 colon,25200 nM
same,TGI,KM12 colon,20000 nM
